Results reported in ChEMBL document CHEMBL4177754, “Targeting Tyrosinase: Development and Structural Insights of Novel Inhibitors Bearing Arylpiperidine and Arylpiperazine Fragments” (J Med Chem, 2018).
The source made the active and inactive calls. The calls are words filed in the database; no cut-off is given here.

molecular target: T1, Tyrosinase (Agaricus bisporus, UniProt O42713); test: Inhibition of mushroom tyrosinase diphenolase activity using L-DOPA as substrate preincubated with substrate for 10 mins followed by protein addition measured after 5 mins by spectrophotometric method
T1 sequence (O42713 whole entry): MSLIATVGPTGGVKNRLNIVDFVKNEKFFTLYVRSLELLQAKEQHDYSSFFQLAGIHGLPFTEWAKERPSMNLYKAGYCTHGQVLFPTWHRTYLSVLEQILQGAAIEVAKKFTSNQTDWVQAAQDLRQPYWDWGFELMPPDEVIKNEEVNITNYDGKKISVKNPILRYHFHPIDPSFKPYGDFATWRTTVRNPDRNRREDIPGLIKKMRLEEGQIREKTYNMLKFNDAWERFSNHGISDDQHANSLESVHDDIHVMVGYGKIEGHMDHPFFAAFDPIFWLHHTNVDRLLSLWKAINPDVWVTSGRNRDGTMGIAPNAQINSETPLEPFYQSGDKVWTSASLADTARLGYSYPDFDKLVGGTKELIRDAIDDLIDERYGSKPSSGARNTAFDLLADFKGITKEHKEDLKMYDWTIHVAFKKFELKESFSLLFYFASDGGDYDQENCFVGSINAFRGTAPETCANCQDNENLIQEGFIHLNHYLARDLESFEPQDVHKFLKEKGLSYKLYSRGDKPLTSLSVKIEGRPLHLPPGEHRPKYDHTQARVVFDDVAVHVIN

`Cc1ccccc1C(=O)N1CCN(Cc2ccc(F)cc2)CC1` and `O=C(c1ccccc1O)N1CCN(Cc2ccc(F)cc2)CC1` are within 1.5-fold of each other in IC50: 5.25 µM for the first, 7.06 µM for the second.

`CC(=O)N1CCC(Cc2ccc(F)cc2)CC1` and `CCC(=O)N1CCC(Cc2ccc(F)cc2)CC1` are within 1.5-fold of each other in IC50: 25.1 µM for the first, 24.1 µM for the second.

`O=C(c1ccc(O)cc1)N1CCN(Cc2ccc(F)cc2)CC1` and `Cc1ccc(C(=O)N2CCN(Cc3ccc(F)cc3)CC2)cc1` are within 1.5-fold of each other in IC50: 27.4 µM for the first, 33.1 µM for the second.

`CC(C)C(=O)N1CCC(Cc2ccc(F)cc2)CC1` and `CC(C)C(=O)N1CCN(Cc2ccc(F)cc2)CC1` are within 1.5-fold of each other in IC50: 35.3 µM for the first, 30.9 µM for the second.

`O=C(c1ccccc1)N1CCC(Cc2ccc(F)cc2)CC1` and `O=C(c1ccccc1)N1CCN(Cc2ccc(F)cc2)CC1` are within 1.5-fold of each other in IC50: 19.5 µM for the first, 13.3 µM for the second.

Going from `O=C(c1cccc(O)c1)N1CCN(Cc2ccc(F)cc2)CC1` to `O=C(c1cccc(F)c1)N1CCN(Cc2ccc(F)cc2)CC1`, the IC50 rises from 12.6 µM to 54.7 µM (4.3-fold). The first is the more potent here.

`COc1ccc(C(=O)N2CCN(Cc3ccc(F)cc3)CC2)cc1` and `O=C(c1ccc(F)cc1)N1CCN(Cc2ccc(F)cc2)CC1` are within 1.5-fold of each other in IC50: 9.14 µM for the first, 7.77 µM for the second.

Compared with `Fc1ccc(CN2CCNCC2)cc1`, `CC(=O)N1CCN(Cc2ccc(F)cc2)CC1` is 1.9-fold lower in IC50: 85.5 µM for the first, 45.9 µM for the second.

Going from `O=C(c1ccccc1F)N1CCN(Cc2ccc(F)cc2)CC1` to `COc1ccccc1C(=O)N1CCN(Cc2ccc(F)cc2)CC1`, the IC50 falls from 3.75 µM to 2.03 µM (1.8-fold). The second is the more potent here.

First: COc1cccc(C(=O)N2CCN(Cc3ccc(F)cc3)CC2)c1
Second: Cc1cccc(C(=O)N2CCN(Cc3ccc(F)cc3)CC2)c1
The IC50 of the first is 6.4-fold lower: 27 µM for the first, 174 µM for the second.

With `CCC(=O)N1CCN(Cc2ccc(F)cc2)CC1` the IC50 was 51.1 µM.

molecular target: T2, Tyrosinase (Agaricus bisporus) (UniProt O42713); test: Non-competitive inhibition of mushroom tyrosinase diphenolase activity at 2 to 8 uM using L-DOPA as substrate preincubated with substrate for 30 mins followed by protein addition measured after 5 mins by Lineweaver-Burk double-reciprocal plot analysis
T2 sequence (whole entry): T1 sequence (O42713 whole entry)

With `COc1ccccc1C(=O)N1CCN(Cc2ccc(F)cc2)CC1` the inhibition was “Active”.
